Reference: patent US7776863B2, “Methods of treating HIV infection” (priority 2004, dated 2010)

System: HIV-1 LAI
Assay: microbe, parasite or virus in culture
Conditions: for EC50: Human immunodeficiency virus 1, MT2, 120 h; for Combination Indices at % HIV Inhibition (Confidence Interval) 50% / Combination Indices at % HIV Inhibition (Confidence Interval) 75% / Combination Indices at % HIV Inhibition (Confidence Interval) 90%: 95% confidence interval in parentheses; for Overall Result (combined anti-HIV effect): all ratios, MT-2 cells, HIV-1 LAI
Experimental: Virus and cell lines. The T-cell lines, MT-2 and PM-1 were obtained through the AIDS Research and Reference Reagent Program, NIAID, and were contributed by Dr. D. Richman and Dr. R. Gallo, respectively. Both cell lines were cultured in RPMI 1640 medium supplemented with 10% fetal bovine serum, 2 mM L-glutamine and sub-cultured twice a week. The LAI strain of HIV-1 was obtained from the Fred Hutchinson Cancer Research Center, and the Bal strain was from NIH. Both virus stocks were amplified and titered in MT-2 cells (LAI) and PM-1 cells (Bal) using a virus infectivity assay.
Drug Susceptibility and Cytotoxicity Assays. For drug susceptibility assays, MT-2 cells were infected with HIV-1 LAI (or PM-1 cells with HIV-1 Bal) at an MOI of 0.005, and seeded into 96-well microtiter plates (0.1×10^6 cells/ml) containing serial dilutions of test compounds. […] Each drug ratio consisted of an array of 3-fold serial dilutions, and was performed in quadruplicate. The plates were incubated at 37° C./5% CO2. The MT-2 cells infected with HIV-1 LAI were incubated for 5 days. On day-five post-infection, 20 μl from each well was harvested and quantitated by a reverse transcriptase (RT) assay, or in samples involving non-nucleoside RT inhibitors, an MTS assay. The PM-1 cells infected with HIV-1 Bal and used for studying the combinations with CCR5 inhibitors were incubated for six days. On day-six post-infection, 20 μl from each well was harvested, 20- and 50-fold diluted and quantitated by p24 assay. Cytotoxicity assays were performed using uninfected cells, exposed to the same drug combinations, and incubated for six days. Cell viability was determined by an MTS assay. The CC50 values were calculated by using the exponential form of the median effect equation as mentioned below for calculation of EC50.
Analysis of Drug Combination Effects. For determination of CI values, drugs were diluted in a fixed ratio and multiple ratios were analyzed. The drug serial dilutions spanned a range of concentrations near the EC50 value of each compound, so that equivalent antiviral activities could be compared. Concentration-response curves were estimated for each individual drug and every combination using the median-effect equation. The equation was fit using a nonlinear regression routine (Proc Nlin) in PC SAS version 8.01 (SAS Institute Inc., SAS Version 8.01, Cary, N.C.: SAS Institute Inc., 1990).
In this equation, Fa stands for “fraction affected,” and represents the fraction of the viral load that has been inactivated. […] ED50 is drug concentration that is expected to reduce the amount of virus by 50%, and m is a parameter that reflects the slope of the concentration-response curve.
To assess antiviral effects of different drug combination treatments, combination indices (CIs) were calculated according to Chou and Rideout. The combination index was computed as CI=[D]1/[Dm]1+[D]2/[Dm]2
In this equation [Dm]1 and [Dm]2 are the concentrations of drugs that would individually produce a specific level of effect, while [D]1 and [D]2 are the concentrations of drugs in combination that would produce the same level of effect.
Theoretically, additivity is implied if the CI is equal to one, synergy if the CI is less than one, and antagonism if the CI is greater than one. […] At best, we can construct a range that contains the likely values for the CI, given the noise in the data. In this report, these ranges are reported in parentheses next to each point estimate of the CI. […] If the range fell entirely above 1.0, we would infer antagonistic behavior. If the range were to include 1.0, we would infer additivity.
In carrying out the combination experiments below, the EC50 for Compound 1 and each comparator compound was determined during the course of each study, and used in the subsequent data analysis.

[1] = Compound 1 + named drug, EC50 ratio 1:1 (Compound 1:comparator)
[2] = Compound 1 + named drug, EC50 ratio 1:2.5 (Compound 1:comparator)
[3] = Compound 1 + named drug, EC50 ratio 2.5:1 (Compound 1:comparator)

Row | SMILES | EC50 [nM] | Combination Indices at % HIV Inhibition (Confidence Interval) 50% [1] | Combination Indices at % HIV Inhibition (Confidence Interval) 75% [1] | Combination Indices at % HIV Inhibition (Confidence Interval) 90% [1] | Combination Indices at % HIV Inhibition (Confidence Interval) 50% [2] | Combination Indices at % HIV Inhibition (Confidence Interval) 75% [2] | Combination Indices at % HIV Inhibition (Confidence Interval) 90% [2] | Combination Indices at % HIV Inhibition (Confidence Interval) 50% [3] | Combination Indices at % HIV Inhibition (Confidence Interval) 75% [3] | Combination Indices at % HIV Inhibition (Confidence Interval) 90% [3] | Overall Result (combined anti-HIV effect) (Compound 1 + named drug) | Overall Result (combined anti-HIV effect) (Compound 1 + named drug, listed as delavirdine) | Combined effect at 90% inhibition level (Compound 1 + named drug) | Combined effect at the 50 and 75% inhibition levels (Compound 1 + named drug)
1 | COc1cnc(-n2cnc(C)n2)c2[nH]cc(C(=O)C(=O)N3CCN(C(=O)c4ccccc4)CC3)c12 [Compound 1, 1-Benzoyl-4-[2-[4-methoxy-7-(3-methyl-1H-1,2,4-triazol-1-yl)-1H-pyrrolo[2,3-c]pyridin-3-yl]-1,2-dioxoethyl]-piperazine] | 0.1 to 0.3 |  |  |  |  |  |  |  |  |  |  |  |  | 
2 | CC(C)Nc1cccnc1N1CCN(C(=O)c2cc3cc(NS(C)(=O)=O)ccc3[nH]2)CC1 [Delavirdine, delavirdine] | 25 | 0.90 (0.75, 1.06) | 0.49 (0.38, 0.61) | 0.28 (0.18, 0.39) | 0.57 (0.42, 0.71) | 0.55 (0.36, 0.75) | 0.57 (0.26, 0.89) | 0.64 (0.49, 0.78) | 0.46 (0.31, 0.60) | 0.34 (0.17, 0.50) | Synergistic | synergistic |  | 
3 | COC(=O)N[C@H](C(=O)N[C@@H](Cc1ccccc1)[C@@H](O)CN(Cc1ccc(-c2ccccn2)cc1)NC(=O)[C@@H](NC(=O)OC)C(C)(C)C)C(C)(C)C [Atazanavir, atazanavir] | 0.7 | 0.53 (0.46, 0.60) |  | 0.90 (0.64, 1.17) |  | 0.49 (0.29, 0.69) | 1.17 (0.38, 1.95) | 0.34 (0.26, 0.42) | 0.56 (0.38, 0.74) | 0.97 (0.46, 1.48) | Additive- |  |  | 
4 | Nc1nc(=O)n([C@@H]2CS[C@H](CO)O2)cc1F [Emtricitabine, emtricitabine] | 25 | 0.42 (0.35, 0.50) | 0.49 (0.37, 0.61) |  | 0.19 (0.15, 0.22) | 0.35 (0.26, 0.44) | 0.67 (0.36, 0.99) | 0.11 (0.09, 0.12) | 0.26 (0.21, 0.31) | 0.67 (0.44, 0.89) | Synergistic |  |  | 
5 | O=c1[nH]cnc2c1ncn2[C@H]1CC[C@@H](CO)O1 [Didanosine, didanosine] | 652 | 0.31 (0.29, 0.32) | 0.16 (0.15, 0.17) | 0.08 (0.08, 0.09) | 0.27 (0.23, 0.31) | 0.31 (0.24, 0.38) | 0.35 (0.23, 0.48) | 0.15 (0.11, 0.19) | 0.31 (0.22, 0.40) | 0.65 (0.31, 0.98) | Synergistic |  |  | 
6 | c1cc(CN2CCCNCCNCCCNCC2)ccc1CN1CCCNCCNCCCNCC1 [AMD-3100] | 5 | 0.44 (0.29, 0.60) | 0.62 (0.31, 0.92) | 0.98 (0.21, 1.76) | 0.56 (0.42, 0.70) | 0.54 (0.35, 0.73) | 0.66 (0.29, 1.02) | 0.52 (0.36, 0.68) | 0.61 (0.35, 0.88) | 0.77 (0.24, 1.31) |  |  | tendency to additivity | strongly synergistic
7 | Nc1nc(NC2CC2)c2ncn([C@H]3C=C[C@@H](CO)C3)c2n1 [Abacavir, abacavir] | 326 | 0.69 (0.49, 0.89) | 0.77 (0.46, 1.09) | 0.87 (0.30, 1.44) | 0.56 (0.45, 0.67) |  | 0.48 (0.27, 0.68) | 0.10 (0.05, 0.14) | 0.27 (0.16, 0.39) |  | Additive- |  |  | 

Second part, led by results:

Row | EC50 [nM] | SMILES | Combination Indices at % HIV Inhibition (Confidence Interval) 50% [1] | Combination Indices at % HIV Inhibition (Confidence Interval) 75% [1] | Combination Indices at % HIV Inhibition (Confidence Interval) 90% [1] | Combination Indices at % HIV Inhibition (Confidence Interval) 50% [2] | Combination Indices at % HIV Inhibition (Confidence Interval) 75% [2] | Combination Indices at % HIV Inhibition (Confidence Interval) 90% [2] | Combination Indices at % HIV Inhibition (Confidence Interval) 50% [3] | Combination Indices at % HIV Inhibition (Confidence Interval) 75% [3] | Combination Indices at % HIV Inhibition (Confidence Interval) 90% [3] | Overall Result (combined anti-HIV effect) (Compound 1 + named drug) | Overall Result (combined anti-HIV effect) (Compound 1 + named drug, listed as delavirdine) | Combined effect at 90% inhibition level (Compound 1 + named drug) | Combined effect at the 50 and 75% inhibition levels (Compound 1 + named drug)
8 | 3 | CC(C)(C)NC(=O)[C@@H]1CN(Cc2cccnc2)CCN1C[C@@H](O)C[C@@H](Cc1ccccc1)C(=O)N[C@H]1c2ccccc2C[C@H]1O [Indinavir, indinavir] | 0.41 (0.26, 0.56) | 0.69 (0.34, 1.04) | 1.59 (0.29, 2.90) | 0.30 (0.18, 0.41) | 0.62 (0.32, 0.92) | 1.96 (0.29, 3.64) | 0.05 (0.03, 0.06) | 0.16 (0.13, 0.20) | 0.68 (0.39, 0.98) | Additive- |  |  | 
9 | 34 | Nc1ccn([C@H]2CC[C@@H](CO)O2)c(=O)n1 [Zalcitabine, zalcitabine] | 0.58 (0.46, 0.69) | 0.61 (0.43, 0.78) | 0.69 (0.39, 1.00) |  | 0.56 (0.44, 0.68) | 0.65 (0.43, 0.86) | 0.24 (0.22, 0.26) | 0.18 (0.16, 0.20) | 0.14 (0.12, 0.17) | Synergistic |  |  | 
10 | 1 | Cc1cn([C@H]2C[C@H](N=[N+]=[N-])[C@@H](CO)O2)c(=O)[nH]c1=O [Zidovudine, zidovudine] | 0.25 (0.17, 0.34) | 0.53 (0.29, 0.78) | 1.13 (0.24, 2.02) | 0.46 (0.36, 0.56) | 0.52 (0.36, 0.68) | 0.59 (0.29, 0.89) | 0.37 (0.28, 0.47) | 0.49 (0.32, 0.67) | 0.66 (0.28, 1.05) | Additive- |  |  | 
